This is an account of results in patent US8637525B2, “Compounds for the reduction of beta-amyloid production” (Bristol-Myers Squibb Company, priority 2009, dated 2014).

Structures can show the parent of a compound that is named as a salt.

In the first experiment the test system is Aβ1-42 production. In words: Cellular assay for inhibition of Aβ1-42 production (H4 APP751 SWE clone 8.20). The experiment is classed as cell-based. As to conditions: 19 h, H4 APP751 SWE clone 8.20 cells, 19 h incubation; class symbols; read-out: Activity Rating (Aβ42 cellular IC50). How it is done: Cellular Assays for Inhibition of Aβ1-40 and Aβ1-42 Production
H4 cells stably transfected with APP751 containing the Swedish mutation (H4 APP751 SWE clone 8.20, developed at BMS) were maintained in log phase through twice weekly passage at a 1:20 split. […] Following incubation for 19 h in 5% CO2 at 37° C., plates were briefly centrifuged (1000 rpm, 5 min). A 10 μl aliquot from each well was transferred to a second assay plate (Costar 3709) for Aβ40 measurements. Antibody cocktails were freshly prepared by dilution into 40 mM Tris-HCl (pH 7.4) with 0.2% BSA and added to assay plates. For Aβ42 measurements, antibodies specific for the Aβ42 neoepitope (565, developed at BMS; conjugated to the Wallac reagent (Perkin Elmer)) and the N-terminal sequence of Aβ peptide (26D6, developed at SIBIA; conjugated to APC (Perkin Elmer)) were mixed and 20 μl of the mixture was added to each well of the incubated cell plate yielding a final concentration of 0.8 ng/well 565 and 75 ng/well 26D6. For the Aβ40 measurements, antibodies specific for the Aβ40 neoepitope (TSD, developed at BMS; conjugated to the Wallac reagent (Perkin Elmer)) and 26D6 as described above were mixed and 20 μl of the mixture was added to the 10 μl aliquots which had been removed previously from the cell plate yielding a final concentration of 1.6 ng/well TSD and 17.5 ng/well 26D6. Assay plates containing antibodies were sealed with aluminum foil and incubated overnight at 4° C. Signal was determined using a Viewlux counter (Perkin Elmer) and IC50 values determined using curve fitting in CurveMaster (Excel Fit based).
The IC50 is the concentration that gives 50% inhibition. Regarding `CNc1nc(Nc2ccc(-n3cnc(Cl)c3)c(OC)c2)nc2c1C=CCC2(O)c1ccccc1` (stereo not shown) [Example 177, 2-(4-(4-chloro-1H-imidazol-1-yl)-3-methoxyphenylamino)-4-(methylamino)-8-phenyl-7,8-dihydroquinazolin-8-ol], the IC50 fell in the range of 0.01 to 0.1 µM.

`COc1cc(Nc2nc3c(c(N(C)C)n2)COCC3c2ccc(Cl)cc2)ccc1-n1cnc(Cl)c1` (stereo not shown) [Example 65, N^2-(4-(4-chloro-1H-imidazol-1-yl)-3-methoxyphenyl)-8-(4-chlorophenyl)-N^4,N^4-dimethyl-7,8-dihydro-5H-pyrano[4,3-d]pyrimidine-2,4-diamine]: the IC50 was 0.01 to 0.1 µM.

For the compound `CNc1nc(Nc2ccc(-n3ncnc3C)c(F)c2)nc2c1COCC2c1ccc(Cl)cc1` (stereo not shown) [Example 69, 8-(4-chlorophenyl)-N^2-(3-fluoro-4-(5-methyl-1H-1,2,4-triazol-1-yl)phenyl)-N^4-methyl-7,8-dihydro-5H-pyrano[4,3-d]pyrimidine-2,4-diamine], the IC50 was 0.01 to 0.1 µM.

`CCNc1nc(Nc2ccc(-n3ncnc3C)c(F)c2)nc2c1CN(CC(F)(F)F)CC2c1ccccc1` (stereo not shown) [Example 146, N4-ethyl-N2-(3-fluoro-4-(5-methyl-1H-1,2,4-triazol-1-yl)phenyl)-8-phenyl-6-(2,2,2-trifluoroethyl)-5,6,7,8-tetrahydropyrido[4,3-d]pyrimidine-2,4-diamine]: the IC50 is 0.01 to 0.1 µM.

In the case of `CCNc1nc(Nc2ccc(-n3cnc(Cl)c3)c(OC)c2)nc2c1COCC2c1cc(F)cc(F)c1` (racemic) [Example 112, N2-(4-(4-chloro-1H-imidazol-1-yl)-3-methoxyphenyl)-8-(3,5-difluorophenyl)-N4-ethyl-7,8-dihydro-5H-pyrano[4,3-d]pyrimidine-2,4-diamine, TFA], the IC50 lay within 0.0015 to 0.0099 µM.

Consider `CNc1nc(Nc2ccc(-n3ncnc3C)c(F)c2)nc2c1CN(S(=O)(=O)C1CC1)CC2c1ccccc1` (stereo not shown) [Example 142, 6-(cyclopropylsulfonyl)-N2-(3-fluoro-4-(5-methyl-1H-1,2,4-triazol-1-yl)phenyl)-N4-methyl-8-phenyl-5,6,7,8-tetrahydropyrido[4,3-d]pyrimidine-2,4-diamine], for which the concentration for half-maximal inhibition (IC50) was in the range of 0.01 to 0.1 µM.

As to `CCNc1nc(Nc2ccc(-n3cnc(Cl)c3)c(OC)c2)nc2c1CN(C)CC2c1ccc(F)cc1` (stereo not shown) [Example 164A, N2-(4-(4-chloro-1H-imidazol-1-yl)-3-methoxyphenyl)-N4-ethyl-8-(4-fluorophenyl)-6-methyl-5,6,7,8-tetrahydropyrido[4,3-d]pyrimidine-2,4-diamine], the 50% inhibitory concentration (IC50) was in the range of 0.01 to 0.1 µM.

For the compound `CNc1nc(Nc2ccc(-n3cnc(C)c3)c(OC)n2)nc2c1CCC2c1ccc(F)cc1` (stereo not shown) [Example 267, 7-(4-fluorophenyl)-N2-(6-methoxy-5-(4-methyl-1H-imidazol-1-yl)pyridin-2-yl)-N4-methyl-6,7-dihydro-5H-cyclopenta[d]pyrimidine-2,4-diamine], the IC50 was in the range of 0.01 to 0.1 µM.

Turning to `CNc1nc(Nc2ccc(-n3cnc(Cl)c3)c(OC)c2)nc2c1COCC2c1ccc(C(F)(F)F)cc1` (racemic) [Example 120, N2-(4-(4-chloro-1H-imidazol-1-yl)-3-methoxyphenyl)-N4-methyl-8-(4-(trifluoromethyl)phenyl)-7,8-dihydro-5H-pyrano[4,3-d]pyrimidine-2,4-diamine, TFA], the half-maximal inhibitory concentration (IC50) lay in the range of 0.01 to 0.1 µM.

With `COc1cc(Nc2nc3c(c(N(C)C)n2)CCC3c2ccc(F)c(F)c2)ccc1-n1cnc(Cl)c1` (racemic) [Example 95, N^2-(4-(4-Chloro-1H-imidazol-1-yl)-3-methoxyphenyl)-7-(3,4-difluorophenyl)-N^4,N^4-dimethyl-6,7-dihydro-5H-cyclopenta[d]pyrimidine-2,4-diamine], the IC50 lay within 0.0015 to 0.0099 µM.

In the case of `CCN(C)c1nc(Nc2ccc(-n3cnc(Cl)c3)c(OC)c2)nc2c1COCC2c1ccc(F)cc1` (stereo not shown) [Example 62A, N2-(4-(4-chloro-1H-imidazol-1-yl)-3-methoxyphenyl)-N4-ethyl-8-(4-fluorophenyl)-N4-methyl-7,8-dihydro-5H-pyrano[4,3-d]pyrimidine-2,4-diamine], the IC50 fell in the range of 0.0015 to 0.0099 µM.

The experiment is the same for the next values; noted with them: 19 h, H4 APP751 SWE clone 8.20 cells, 19 h incubation; read-out: Activity Rating (Aβ42 cellular IC50), numeric value.
For the compound `COc1cc(Nc2nc(N[C@H](C)C3CC3)c3c(n2)C(c2ccc(C(F)(F)F)cc2)COC3)ccc1-n1cnc(Cl)c1` (stereo partly drawn) [Example 117, N2-(4-(4-chloro-1H-imidazol-1-yl)-3-methoxyphenyl)-N4-((R)-1-cyclopropylethyl)-8-(4-(trifluoromethyl)phenyl)-7,8-dihydro-5H-pyrano[4,3-d]pyrimidine-2,4-diamine, TFA], the IC50 turned out to be 0.045 µM.

`CCNc1nc(Nc2ccc(-n3cnc(C)n3)c(F)c2)nc2c1CN(S(C)(=O)=O)CC2c1ccc(F)cc1` (stereo not shown) [Example 156A, N4-ethyl-N2-(3-fluoro-4-(3-methyl-1H-1,2,4-triazol-1-yl)pheny)-8-(4-fluorophenyl)-6-(methylsulfonyl)-5,6,7,8-tetrahydropyrido[4,3-d]pyrimidine-2,4-diamine]: the IC50 is 0.0098 µM.

For the compound `CCNc1nc(Nc2ccc(-n3cnc(Cl)c3)c(OC)c2)nc2c1CN(CC(F)(F)F)CC2c1ccccc1` (stereo not shown) [Example 196B], the IC50 was found to be 0.054 µM.

For `COc1cc(Nc2nc3c(c(N4CC5(CCCO5)C4)n2)CCC3c2ccccc2)ccc1-n1cnc(Cl)c1` (stereo not shown) [Example 188, N-(4-(4-chloro-1H-imidazol-1-yl)-3-methoxyphenyl)-7-phenyl-4-(5-oxa-2-azaspiro[3.4]octan-2-yl)-6,7-dihydro-5H-cyclopenta[d]pyrimidin-2-amine], the IC50 was 0.019 µM.

For the compound `CCNc1nc(Nc2ccc(-n3cnc(C)n3)c(F)c2)nc2c1CN(CC(F)F)CC2c1ccccc1` (stereo not shown) [Example 195, 6-(2,2-difluoroethyl)-N4-ethyl-N2-(3-fluoro-4-(3-methyl-1H-1,2,4-triazol-1-yl)phenyl)-8-phenyl-5,6,7,8-tetrahydropyrido[4,3-d]pyrimidine-2,4-diamine], the IC50 amounted to 0.017 µM.

Consider `COc1cc(Nc2nc3c(c(N4CCC(F)C4)n2)COCC3c2ccc(F)cc2)ccc1-n1cnc(Cl)c1` (stereo in doubt) [Example 57A, N-(4-(4-chloro-1H-imidazol-1-yl)-3-methoxyphenyl)-8-(4-fluorophenyl)-4-((R)-3-fluoropyrrolidin-1-yl)-7,8-dihydro-5H-pyrano[4,3-d]pyrimidin-2-amine], for which the IC50 is 0.014 µM.

Turning to `COc1cc(Nc2nc3c(c(N4CC(F)(F)C4)n2)CCC3c2ccc(F)cc2)ccc1-n1cnc(Cl)n1` (single isomer, unassigned) [Example 17A, N-(4-(3-chloro-1H-1,2,4-triazol-1-yl)-3-methoxyphenyl)-4-(3,3-difluoroazetidin-1-yl)-7-(4-fluorophenyl)-6,7-dihydro-5H-cyclopenta[d]pyrimidin-2-amine], the IC50 turned out to be 0.12 µM.

Regarding `COc1cc(Nc2nc3c(c(N4CC[C@@H](F)C4)n2)CCC3c2ccc(F)cc2)ccc1-n1cnc(Cl)c1` (single isomer, unassigned) [Example 38A], the IC50 worked out at 0.012 µM.

The experiment is the same for the next values; noted with them: H4 APP751 SWE clone 8.20 cells, 19 h incubation; class symbols; read-out: Activity Rating (Aβ42 cellular IC50).
For `COc1cc(Nc2nc(N[C@H](C)C3CC3)c3c(n2)C(c2ccc(F)cc2)CC3)ccc1-n1cnc(Cl)c1` (single isomer, unassigned) [Example 49A], the IC50 lay within 0.0015 to 0.0099 µM.

For the compound `CNc1nc(Nc2ccc(-n3cnc(Cl)c3)c(OC)c2)nc2c1CCC2c1ccc(OC(F)(F)F)cc1` (single isomer, unassigned) [Example 97A, N^2-(4-(4-chloro-1H-imidazol-1-yl)-3-methoxyphenyl)-N^4-methyl-7-(4-(trifluoromethoxy)phenyl)-6,7-dihydro-5H-cyclopenta[d]pyrimidine-2,4-diamine], the IC50 was 0.0015 to 0.0099 µM.

As for `COc1cc(Nc2nc3c(c(N4CC(OC)C4)n2)CCC3c2ccccc2)ccc1-n1cnc(Cl)c1` (single isomer, unassigned) [Example 183A, N-(4-(4-chloro-1H-imidazol-1-yl)-3-methoxyphenyl)-4-(3-methoxyazetidin-1-yl)-7-phenyl-6,7-dihydro-5H-cyclopenta[d]pyrimidin-2-amine], the IC50 was 0.0015 to 0.0099 µM.

For the compound `CNc1nc(Nc2ccc(-n3cnc(Cl)c3)c(OC)c2)nc2c1COCC2c1ccc(C(F)(F)F)cc1` (stereo not shown) [Example 120B, N2-(4-(4-chloro-1H-imidazol-1-yl)-3-methoxyphenyl)-N4-methyl-8-(4-(trifluoromethyl)phenyl)-7,8-dihydro-5H-pyrano[4,3-d]pyrimidine-2,4-diamine], the IC50 is 0.1 to 1 µM.

Regarding `CCNc1nc(Nc2ccc(-n3cnc(Cl)c3)c(OC)c2)nc2c1CN(C(=O)OC)CC2c1ccccc1` (stereo not shown) [Example 131A, Methyl 2-(4-(4-chloro-1H-imidazol-1-yl)-3-methoxyphenylamino)-4-(ethylamino)-8-phenyl-7,8-dihydropyrido[4,3-d]pyrimidine-6(5H)-carboxylate], the 50% inhibitory concentration (IC50) lay in the range of 0.0015 to 0.0099 µM.

For the compound `CCNc1nc(Nc2ccc(-n3cnc(Cl)c3)c(OC)c2)nc2c1COCC2c1cc(F)cc(F)c1` (stereo not shown) [Example 112A, N2-(4-(4-chloro-1H-imidazol-1-yl)-3-methoxyphenyl)-8-(3,5-difluorophenyl)-N4-ethyl-7,8-dihydro-5H-pyrano[4,3-d]pyrimidine-2,4-diamine], the IC50 was 0.0015 to 0.0099 µM.
